# How the values were obtained:
# Type in all cases: cell-based, human
# [1] = test system: cyclooxygenase-2 (COX-2); assay: COX-2 protein in monocyte membranes, Western blot; conditions: LPS 25 ng/ml; HMW-uPA 30 nM or plasmin 360 nM; FIG. 4A
# Protocol: Cell protein isolation for the determination of COX-2 protein levels were prepared as previously described (Zhang et al., J. Clin. Invest. 99: 894-900, 1997). Briefly, 20×10^6 monocytes in 4 ml of DMEM were cultured in suspension in 17 ml polypropylene tubes overnight in the presence or absence of reagents. The cells were then washed in phosphate buffered saline with protease inhibitors. The cell pellets were resuspended in 250 mM sucrose containing protease inhibitors and sonicated (Ultrasonic Cell Disrupter, Kontes, American Instrument Exchange, Inc., Haverhill, Mass.). Nuclear debris and unbroken cells were pelleted at 100×g and the supernatant microfuged at 1,500×g to pellet cell membrane proteins. Equal amounts of protein were loaded onto 12% Tris Glycine gels. […] Equal loading of samples was measured with mouse anti-β-actin antibodies.
# (§1) Western blots for MMP-1, MAPKs and COX-2 were incubated overnight with primary antibodies, washed and analyzed by the addition of Alexa Fluor 680 goat anti-rabbit or Alexa Fluor 750 goat anti-mouse antibodies (Molecular Probes® Inc., Eugene, Oreg.) and the infrared fluorescence detected with the Odyssey infrared imaging system (LI-COR, Lincoln, Nebr.). Densitometry analysis of the bands on the Western blots was determined with the LI-COR software analysis program or the ImageQuant software analysis program (Amersham Biosciences, Piscataway, N.J.).
# [2] = test system: ERK1/2; assay: Phosphorylation of ERK1/2 in monocytes, Western blot; conditions: LPS-stimulated monocytes, 1 hour; FIG. 5B
# Protocol: (§2) For detection of the levels of activated ERK1/2 and p38 MAPKs monocytes were cultured in DMEM at 5×10^6/ml in suspension. Ten to 60 minutes after the addition of reagents, the cells were pelleted and lysed with SDS loading buffer (prepared as described above). The supernatants were loaded onto 12% Tris-glycine gels. The blots were then incubated overnight with mouse anti-human antibodies against the phosphorylated forms of ERK1/2 and p38 and with rabbit anti-human antibodies against total ERK1/2 and p38 as a measure of equal loading of the gels.
# as §1
# [3] = test system: p38 MAPK; assay: Phosphorylation of p38 MAPK in monocytes, Western blot; conditions: LPS-stimulated monocytes, 1 hour; FIG. 5B
# Protocol: as §2, §1
# [4] = test system: MMP-1 production by monocytes; assay: MMP-1 protein in monocyte conditioned media, Western blot
# Source text: Reagents. High molecular weight urokinase plasminogen activator (HMW-uPA), low molecular weight uPA (LMW-uPA), amino-terminal fragment-uPA (ATF-uPA) and α2-antiplasmin were obtained from American Diagnostica Inc. (Stamford, Conn.). […] LPS Escherichia coli 05:B55 was purchased from Sigma-Aldrich (St. Louis, Mo.). ERK1/2/phospho-ERK1/2 and p38/phospho-p38 antibodies were from Cell Signaling Technology (Beverly, Mass.). MMP-1 antibodies used were rabbit polyclonal antibodies against MMP-1 (provided by Dr. Henning Birkedal-Hansen, NIDCR/NIH) and a mouse anti-human MMP-1 monoclonal antibody (Chemicon International, Inc., Temecula, Calif.). Rabbit anti-COX-2 antibodies were obtained from Cayman Chemical Company (Ann Arbor, Mich.) and mouse anti-β-actin antibodies were from Chemicon International, Inc., Temecula, Calif.). Purification and culture of human monocytes. Human peripheral blood cells were obtained by leukapheresis of non-disease subjects. The monocyte fraction was purified by counter-flow centrifugal elutriation as previously described (Wahl et al., Cell Immunol. 85: 373-383, 1984; and Wahl et al., “In Current Protocols in Immunology,” eds. John Wiley & Sons, Inc. NY. Vol. 2: 7.6A.1-7.6A.10., 2005) and contained greater than 90% monocytes as determined by morphology and flow cytometry. Monocytes were cultured in serum-free Dulbecco Modified Eagle's Medium (DMEM; Cambrex, Walkersville, Md.) supplemented with 2 mM L-glutamine (Mediatech, Herndon, Va.) and 10 μg/ml gentamycin (Cambrex, Walkersville, Md.). Western blot analysis of MMP-1, MAPKs and COX-2. For MMP-1 determination, purified monocytes were cultured at a density of 5×10^6/ml of DMEM in 12 well polystyrene plates (Corning Incorporated Life Sciences, Lowell, Mass.). After 36 to 48 hours of treatment with reagents, the conditioned media were centrifuged and collected. Bovine serum albumin (BSA; 40 μg/ml) was added to the culture supernatants prior to the precipitation of the proteins with cold ethanol (final concentration, 60%) for at least 15 min at −70° C. The proteins were pelleted by microcentrifuging at 20,800×g for 12 min, washed with ethanol, and lyophilized by rotary evaporation. The lyophilized proteins were resuspended in sodium dodecyl sulfate (SDS)-Laemmli buffer [500 mM Tris-HCl (pH 6.8)/10% SDS/0.01% bromophenol-blue/20% glycerol], reduced with 5% β-mercaptoethanol, heated for 4 min at 100° C., and electrophoresed on a 10 or 12% Tris-glycine gel in SDS running buffer [25 mM Tris-HCl (pH 8.3)/192 mM glycine/[…]]. The proteins were transferred onto 0.45 μm nitrocellulose in a buffer containing 25 mM Tris-HCl (pH 8.3)/192 mM glycine/20% methanol and blocked with 50 mM Tris-HCl (pH 7.5)/150 mM NaCl (TBS) containing 5% nonfat dry milk for at least 1 hour. The blots were then incubated overnight with antibodies against MMP-1.
# as §1
# [5] = test system: PGE2; assay: PGE2 in monocyte culture supernatants, ELISA; conditions: LPS-stimulated monocytes, 24 hours; FIG. 4B
# Protocol: FIGS. 4A-4C illustrate that stimulation of MMP-1 by HMW-uPA and plasmin is mediated in part by PGE2. FIG. 4A is a digital image depicting cyclooxygenase-2 (COX-2) protein levels detected in monocyte cultures determined by Western blot analysis in the presence of HMW-uPA (30 nM) or plasmin (360 nM) in the absence or presence of LPS (25 ng/ml). β-actin protein levels were detected to serve as an indicator for equal sample loading. FIG. 4B is a bar graph illustrating media levels of PGE2 measured by ELISA at 24 hours. FIG. 4C is a digital image illustrating MMP-1 protein levels detected by Western blot analysis in monocyte cultures following incubation with indomethacin for 30 minutes prior to the addition of LPS, HMW-uPA, plasmin or PGE2 (1 μM).
substance,measurement,setting,value
plasmin,LPS-induced COX-2 protein level,[1],increased
same,phosphorylation of ERK1/2,[2],induced increases
same,phosphorylation of p38,[3],induced increases
same,protein levels of MMP-1,"[4]; LPS (25 ng/ml) stimulated monocytes, indicated concentrations, FIG. 1A / 2B",dose-dependent increase
same,induction of MMP-1 protein,"[4]; unstimulated (control) monocytes, no LPS",did not induce MMP-1
same,PGE2 levels in monocyte culture supernatants,[5],increased PGE2 levels

# From patent US20090142330A1, “Use of inactive-plasmin to treat chronic inflammatory disease and tumors” (The Government of the United States of America as …, priority 2007, published 2009)
